# Measurements: patent US6551774B1, “Diagnostic methods for conditions associated with elevated cellular levels of telomerase activity” (Board of Regents, The University of Texas System, priority 1992, dated 2003)
# Where a name gives a salt, the structure may show the parent alone. Read-outs that look alike come from different tables or passages of the source.
# Experiments:
# [1] = biological target: T1, Tetrahymena thermophila telomerase (Tetrahymena thermophila, UniProt O77448); assay: Tetrahymena telomerase in vitro assay (incorporation of 32P label, gel of products); type: biochemical; details: for position on the telomerase RNA template of strongest chain termination: template residues numbered 1 to 9 (5′ to 3′); for effect on the telomerase reaction: dideoxynucleoside triphosphates; for Km: from competition of unlabeled with 32P-labeled nucleotide
# T1 construct: A standard assay contained 50% by volume of heparin-agarose purified telomerase; endogenous in cells; host or cells: Tetrahymena thermophila cell extracts, heparin-agarose purified
# T1 sequence (O77448 1-1117): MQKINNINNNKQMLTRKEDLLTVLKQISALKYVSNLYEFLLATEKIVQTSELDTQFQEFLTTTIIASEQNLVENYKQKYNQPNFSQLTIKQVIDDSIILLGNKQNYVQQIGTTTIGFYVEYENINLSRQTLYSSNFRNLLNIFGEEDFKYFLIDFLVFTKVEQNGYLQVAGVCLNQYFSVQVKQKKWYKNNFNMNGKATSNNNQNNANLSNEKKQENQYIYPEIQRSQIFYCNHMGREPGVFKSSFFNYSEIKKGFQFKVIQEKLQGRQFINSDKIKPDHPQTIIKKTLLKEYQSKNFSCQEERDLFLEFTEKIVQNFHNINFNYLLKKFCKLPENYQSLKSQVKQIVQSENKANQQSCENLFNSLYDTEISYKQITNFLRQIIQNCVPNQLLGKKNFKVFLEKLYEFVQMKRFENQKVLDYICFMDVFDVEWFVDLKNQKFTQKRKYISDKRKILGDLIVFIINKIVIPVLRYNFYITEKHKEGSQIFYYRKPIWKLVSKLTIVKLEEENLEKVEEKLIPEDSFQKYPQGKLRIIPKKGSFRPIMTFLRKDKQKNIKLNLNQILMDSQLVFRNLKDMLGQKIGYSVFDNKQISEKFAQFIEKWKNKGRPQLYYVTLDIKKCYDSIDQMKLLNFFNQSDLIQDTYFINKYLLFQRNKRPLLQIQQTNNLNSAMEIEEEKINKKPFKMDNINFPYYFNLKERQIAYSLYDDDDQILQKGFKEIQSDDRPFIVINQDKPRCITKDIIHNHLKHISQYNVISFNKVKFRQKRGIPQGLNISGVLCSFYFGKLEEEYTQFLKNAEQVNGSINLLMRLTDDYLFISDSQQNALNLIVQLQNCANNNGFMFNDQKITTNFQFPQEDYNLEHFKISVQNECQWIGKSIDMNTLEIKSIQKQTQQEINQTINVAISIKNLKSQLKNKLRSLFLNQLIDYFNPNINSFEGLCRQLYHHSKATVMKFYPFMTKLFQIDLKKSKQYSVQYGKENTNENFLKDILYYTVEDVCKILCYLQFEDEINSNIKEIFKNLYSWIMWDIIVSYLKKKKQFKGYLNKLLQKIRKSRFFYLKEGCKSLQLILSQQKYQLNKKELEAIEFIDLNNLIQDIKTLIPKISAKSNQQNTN
# T1 sequence (W7X6T2 1-542 partner): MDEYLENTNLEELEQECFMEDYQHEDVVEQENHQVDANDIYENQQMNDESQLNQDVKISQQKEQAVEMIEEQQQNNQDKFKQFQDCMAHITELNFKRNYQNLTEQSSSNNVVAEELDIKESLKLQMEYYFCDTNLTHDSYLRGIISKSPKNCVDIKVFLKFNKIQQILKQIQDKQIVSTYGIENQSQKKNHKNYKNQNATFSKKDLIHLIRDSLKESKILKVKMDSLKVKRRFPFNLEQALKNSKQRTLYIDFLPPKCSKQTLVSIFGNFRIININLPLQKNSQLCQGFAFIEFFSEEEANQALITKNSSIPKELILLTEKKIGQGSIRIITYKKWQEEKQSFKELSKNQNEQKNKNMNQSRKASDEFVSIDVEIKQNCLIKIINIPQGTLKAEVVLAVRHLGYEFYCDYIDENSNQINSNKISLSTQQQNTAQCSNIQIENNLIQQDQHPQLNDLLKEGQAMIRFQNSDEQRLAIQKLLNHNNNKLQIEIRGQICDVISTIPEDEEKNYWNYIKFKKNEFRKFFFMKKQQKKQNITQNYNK
# Procedure: AZT-triphosphate was obtained from Burroughs Wellcome, N.C. Ara-G-triphosphate was purchased from Calbiochem and ddNTPs from Sigma. Reaction mixes were kept on ice until ready for use, and then mixed into tubes containing analog for incubation at 30° C. Reaction times were thirty minutes. […] Identical reactions were run without primers as controls. […] Incorporation of ^32P label from either ^32P-TTP or ^32P-dGTP was measured to monitor the reaction rate.
# The standard telomerase assay used in this example consists of incorporation of dGTP and TTP substrates, one triphosphate ^32P-labeled, into synthesized DNA in the reaction shown in FIG. 18A. […] Incorporation of ^32P label from either ^32P-TTP or ^32P-dGTP was measured to monitor the reaction rate, and the distributions of elongation products were analyzed by denaturing polyacrylamide gel electrophoresis.
# Tetrahymena cells [2] = assay: Progeny formation (cycloheximide resistance) of Tetrahymena conjugated in the presence of analog; type: cell-based, Tetrahymena thermophila; details: for % CHX-R: 0.017 mM analog (head prints MM)
# Procedure: For analysis of cycloheximide (CHX) sensitivity of cells conjugated in the presence of analog, 50 ml cultures of each cell type were grown overnight in 2% PPYS, starved in Dryl's for 18 hours, mated (5×10^5 cells/ml) for 6 hours, then analog was added. Cells were allowed to complete mating in the presence of the analog. Twenty-four hours after mixing, cells were diluted in Dryl's solution, counted and plated at 1 cell per well of 96-well plates in 1% PPYS without analog. Cells were grown for 4 days in a humid chamber at 30° C., without shaking. Cells were then replica plated into 1% PPYS plus 15 μg/ml cycloheximide, allowed to grow for four days before scoring, and percent of CHX-resistant wells was calculated. Because generation of progeny expressing the cycloheximide marker requires successful production of a new macronucleus, cells whose macronuclear development was disrupted by the analog are killed in CHX.
# This process involves de novo formation of new macronuclear telomeres in the progeny cells. Macronuclear development in ciliated protozoans such as Tetrahymena involves developmentally programmed, site-specific fragmentation of germline chromosomes into linear subchromosomes, whose ends are healed by de novo addition of telomeres. […] Because of the immediate requirement for telomere addition to fragmented DNA, it is possible that the latter process might be more sensitive to telomerase inhibition than telomere maintenance during vegetative growth. To test whether nucleoside analogs cause inhibition of macronuclear development due to a disruption of telomere formation, we mated two strains of Tetrahymena which are sensitive to cycloheximide, but whose progeny after mating are resistant to cycloheximide. Synchronized mated cells were treated with AZT at concentrations ranging from 10 μM to 5 mM for a period beginning just prior to when macronuclear development begins and continuing during macronuclear development (the period 6-24 hours after mating was initiated). […] In attempts to maximize the effect of AZT, cells were either refed at 6 hrs with 2% PPYS or Isobroth, or starved until 24 hrs (the duration of the AZT treatment). Such starvation arrests macronuclear development at an intermediate stage. When refed, macronuclear development would then be forced to proceed in the presence of the AZT. Control, unmated parental cells were also plated and exposed to drug.
# Tetrahymena cells [3] = assay: Telomere length in vegetatively grown Tetrahymena by Southern blot; type: cell-based, Tetrahymena thermophila; details: 100 μM and 1 mM in Isobroth, after 5 days (16 generations)
# Procedure: For analysis of macronuclear DNA from cultures containing the nucleoside analog AZT (Sigma), or controls lacking analog, at various timepoints during vegetative divisions, cells from stationary stock cultures were inoculated into 25 ml thymine-deficient Iso-sensitest broth (‘Isobroth’, Oxoid USA) in 250 ml flasks. Cultures were incubated at 30° C. with shaking (100 rpm) for 48 hours. Cells were counted and plated at 1000 cells/1.5 ml in 24-well plates (Falcon) and grown at 30° C., without shaking, for 48 hours. 5 μl of these log phase cells were used to inoculate 1 ml cultures (Isobroth) containing varied concentrations of nucleoside analog. Thereafter, every 2-4 days cells were transferred, either 5 μl per well, or 1-3 μl using a multi-pronged replicator into fresh 1 ml broth containing AZT. Remaining cells were pelleted and stored at −80° C. until processed for DNA analysis.
# For analysis of macronuclear DNA from vegetative cultures containing the nucleoside analogs Ara-G (Calbiochem), ddG (Calbiochem), or ddI (Calbiochem), or controls lacking analog, stock cultures were grown overnight in 2% PPYS as described. Cells were counted and plated at 100 cells/2 ml in 2% PPYS containing varied amounts of analog, 1% DMSO (Fisher) (as a control for ddG and Ara-G), or 2% PPYS alone. Cells were replica plated into fresh medium every 2-6 days, and remaining cells were pelleted and stored at −80° C. until processed for DNA analysis.
# For analysis of macronuclear DNA from vegetative cultures containing d4T (Sigma) or control lacking the analog, stock cultures (SB210 VI) were grown overnight in Isobroth as described. Cells were then counted and duplicate cultures inoculated at 500 cells/5 ml Isobroth in 50 ml conical tubes, and grown at 30° C., shaking 80 rpm. 500-2000 cells were transfered to fresh broth every 2-4 days, and the remainder pelleted and stored at −80° C. until processed for DNA analysis.
# Restriction digests, agarose gel electrophoresis, transfer of DNA to Nytran filters (Schleicher and Schuell), and hybridization with ^32P-nick-trapplated or random-primed probes were carried out using standard procedures (Maniatis et.al. 1989). Telomere length was analyzed as described previously for Tetrahymena [Larson 50 Cell, 477, 1987].
# Telomere lengths in cells grown in the presence of the different analogs were monitored by Southern blot analysis of DNA samples extracted at a series of time points during the subculturings. The telomeres of cells grown vegetatively in 1 and 5 mM AZT in 2% PPYS medium were reproducibly shortened by up to an average of 170 base pairs compared with the control cultures grown in 2% PPYS in the absence of the drug (FIG. 21A and B). This shortening of telomeres occured in a concentration-dependent manner (FIG. 21B), with at least 50% of the maximal shortening effect occurring by 10 μM AZT, the lowest concentration tested.
smiles,measurement,setting,value
"Nc1nc2c(ncn2[C@@H]2O[C@H](COP(=O)(O)OP(=O)(O)OP(=O)(O)O)[C@@H](O)[C@@H]2O)c(=O)[nH]1 [Ara-GTP, arabinofuranyl-guanosine triphosphate]",IC50,"[1]; standard assay, 32P-dGTP / 32P-NTP incorporation, 30 min at 30° C., read-out: concentration at which 50% inhibition of incorporation of 32P label occurred",0.7 µM
same,position on the telomerase RNA template of strongest chain termination,[1],4
Nc1ncnc2c1ncn2[C@H]1CC[C@@H](COP(=O)(O)OP(=O)(O)OP(=O)(O)O)O1 [ddATP],effect on the telomerase reaction,[1],no significant effects
Cc1cn([C@H]2CC[C@@H](COP(=O)(O)OP(=O)(O)OP(=O)(O)O)O2)c(=O)[nH]c1=O [ddTTP],IC50,[1],5 µM
"O=c1[nH]cnc2c1ncn2[C@H]1CC[C@@H](COP(=O)(O)OP(=O)(O)OP(=O)(O)O)O1 [ddITP, dideoxyinosine triphosphate]",IC50,[1],3 µM
same,position on the telomerase RNA template of strongest chain termination,[1],5
Nc1ccn([C@H]2CC[C@@H](COP(=O)(O)OP(=O)(O)OP(=O)(O)O)O2)c(=O)n1 [ddCTP],effect on the telomerase reaction,[1],no significant effects
"[H]/N=C(/N)N[C@H]1[C@H](O)[C@@H](O)[C@H](O[C@@H]2O[C@@H](C)[C@](O)(C=O)[C@H]2O[C@@H]2O[C@@H](CO)[C@H](O)[C@@H](O)[C@@H]2NC)[C@@H](N/C(N)=N\[H])[C@@H]1O [Streptomycin sulfate, streptomycin sulfate]",effect on amount and average length of elongation products,"[1]; 40 mM, 40 mM sodium sulfate control little decrease",dramatically reduced
Cc1cn([C@H]2C[C@H](O)[C@@H](COP(=O)(O)OP(=O)(O)OP(=O)(O)O)O2)c(=O)[nH]c1=O [TTP],Km,[1],~5 µM
"Nc1nc2c(ncn2COCCO)c(=O)[nH]1 [Acyclo-G, Acycloguanosine]",% CHX-R,Tetrahymena cells [2]; first block for the analog,75%
same,% CHX-R,Tetrahymena cells [2]; second block for the analog,69%
same,# CHX-R,"Tetrahymena cells [2]; 0.017 mM analog, first block for the analog, number of cycloheximide-resistant wells",80
same,irreversible disruption of macronuclear development,Tetrahymena cells [2]; analog present during conjugation,little or no irreversible disruption
Nc1nc2c(ncn2[C@H]2CC[C@@H](COP(=O)(O)OP(=O)(O)OP(=O)(O)O)O2)c(=O)[nH]1 [ddGTP],IC50,[1],< 0.1 µM
"Cc1cn([C@H]2C=C[C@@H](CO)O2)c(=O)[nH]c1=O [d4T, 3′ deoxy-2′,3′-didehydrothymidine]",telomere length,Tetrahymena cells [3],produced shortened telomeres
CO[C@H]1/C=C/O[C@@]2(C)Oc3c(C)c(O)c4c(O)c(c(/C=N/N5CCN(C)CC5)c(O)c4c3C2=O)NC(=O)/C(C)=C\C=C\[C@H](C)[C@H](O)[C@@H](C)[C@@H](O)[C@@H](C)[C@H](OC(C)=O)[C@@H]1C [rifampin],effect on quantitative incorporation of label and banding pattern,[1]; concentrations up to 100 μg/ml,did not affect the quantitative incorporation of label or change the banding pattern
Nc1nc2c(ncn2[C@H]2C[C@H](O)[C@@H](COP(=O)(O)OP(=O)(O)OP(=O)(O)O)O2)c(=O)[nH]1 [dGTP],Km,[1],1 to 2 µM
